The results in this text go back to ChEMBL document CHEMBL1201862, “PubChem BioAssay data set” (2004).

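A five-concentration, 48-hour dose response in 96-well plates underlies each endpoint, interpolated linearly between surrounding concentrations. GI50 marks 50% less growth.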 Active and inactive are the calls of the source. Cut-off read from the data, not from the text of the source: active = GI50 up to about 1.1 µM and inactive = higher. A value given as a limit tells only on which side of the number the result lay.

Some test systems named below: RPMI-8226; SNB-75; DU-145; MDA-MB-231; MDA-MB-435; HOP-62; UACC-257; SF-268; SW-620; M14; A549; LOX IMVI; SF-295; K562; A498; SK-MEL-5; TK-10; T47D; NCI-H522.
What all share (test): growth of human tumour cells (NCI), 48 h

Take `O=c1[nH]c2ccccc2c(=O)n1/N=C\c1ccccc1O`: the GI50 in the assay with RPMI-8226 is > 100 µM (inactive); with SNB-75, 36.4 µM (inactive); with DU-145, > 100 µM (inactive); in the assay with MDA-MB-231, > 100 µM (inactive); in the assay on MDA-MB-435, > 100 µM (inactive); in the assay with HOP-62, > 100 µM (inactive). Also, the GI50 in the assay on UACC-257 was > 100 µM (inactive); in the assay with SF-268, 58.6 µM (inactive); in the assay with SW-620 it was > 100 µM (inactive); in the assay with M14, > 100 µM (inactive); in the assay with A549 it was > 100 µM (inactive); in the assay on LOX IMVI it was > 100 µM (inactive). Also, the GI50 was > 100 µM (inactive) in the assay with SF-295; > 100 µM (inactive) in the assay with K562; > 100 µM (inactive) in the assay on A498; 88.3 µM (inactive) in the assay with SK-MEL-5; > 100 µM (inactive) with TK-10; > 100 µM (inactive) in the assay with T47D.

With `O=C1OCC/C1=C/c1ccc(/N=N/c2c(O)ccc3ccccc23)cc1`, the GI50 was 21.6 µM (inactive) in the assay with RPMI-8226; 24.8 µM (inactive) in the assay with SNB-75; 17.7 µM (inactive) in the assay on DU-145; 50.2 µM (inactive) in the assay with MDA-MB-231; 23.1 µM (inactive) in the assay with MDA-MB-435; 22.9 µM (inactive) in the assay with NCI-H522. The GI50 with HOP-62 was 21.9 µM (inactive); with UACC-257 it was 20.7 µM (inactive); in the assay with SF-268, 19.8 µM (inactive); in the assay with SW-620, 19.2 µM (inactive); with M14, 27.5 µM (inactive); with A549 it was 18.6 µM (inactive). Besides, the GI50 in the assay with SF-295 is 25.3 µM (inactive); with K562, 28.6 µM (inactive); with A498, 15.1 µM (inactive); in the assay on SK-MEL-5, 21.9 µM (inactive); with TK-10 it was 19.9 µM (inactive); in the assay with T47D, 39.4 µM (inactive).

Turning to `COC(=O)C1=C(C)N2[C@H](C(=O)O)CO[C@@]2(C)[C@H](C(=O)OC)[C@H]1c1cccc([N+](=O)[O-])c1`, the GI50 in the assay on RPMI-8226, with SNB-75, in the assay with DU-145, with MDA-MB-231, in the assay on MDA-MB-435 and in the assay with NCI-H522 was > 100 µM (inactive) throughout. The GI50 with HOP-62, with UACC-257, with SF-268, in the assay with SW-620, in the assay with M14 and with A549 was > 100 µM (inactive) in each case. In addition, the GI50 in the assay on SF-295, in the assay with K562, in the assay on A498, in the assay with SK-MEL-5, in the assay with TK-10 and with T47D was > 100 µM (inactive) in each case.

Take `O=C1CSC2(CC(/C=C/c3ccccc3Br)=NN2c2cccc(S(=O)(=O)O)c2)N1c1nc2ccccc2s1` (configuration not stated): the GI50 was 44.8 µM (inactive) in the assay with RPMI-8226; > 100 µM (inactive) in the assay on SNB-75; > 100 µM (inactive) with DU-145; > 100 µM (inactive) with MDA-MB-231; 43.1 µM (inactive) with MDA-MB-435; 52 µM (inactive) in the assay on NCI-H522. In addition, the GI50 with UACC-257, in the assay with SF-268, in the assay on SW-620, in the assay with M14, in the assay with A549 and with LOX IMVI was > 100 µM (inactive) throughout. The GI50 is 54.8 µM (inactive) with K562; > 100 µM (inactive) in the assay with A498; 76 µM (inactive) in the assay on SK-MEL-5; 45.7 µM (inactive) in the assay with TK-10; 27.6 µM (inactive) in the assay with T47D.

For the compound `CN(C)c1ccc(/C=N/n2c(-c3ccccc3)nc3ccccc3c2=O)cc1`, the GI50 is 20.4 µM (inactive) in the assay with RPMI-8226; 24.4 µM (inactive) in the assay with SNB-75; > 100 µM (inactive) with DU-145; 30 µM (inactive) with MDA-MB-231; 79.4 µM (inactive) in the assay on MDA-MB-435; 49.3 µM (inactive) in the assay on NCI-H522. In addition, the GI50 is > 100 µM (inactive) with HOP-62; > 100 µM (inactive) in the assay with UACC-257; 44 µM (inactive) in the assay on SF-268; > 100 µM (inactive) in the assay with SW-620; 79.6 µM (inactive) in the assay with M14; 53.5 µM (inactive) in the assay with A549. Also, the GI50 was 80.2 µM (inactive) in the assay on LOX IMVI; > 100 µM (inactive) in the assay with SF-295; > 100 µM (inactive) with A498; 33.3 µM (inactive) in the assay on SK-MEL-5; 81.7 µM (inactive) in the assay with TK-10; 15 µM (inactive) with T47D.

For `O=C(N/C=C1\C(=O)Oc2ccccc2C1=O)Oc1ccccc1`, the GI50 in the assay on RPMI-8226 was 91.4 µM (inactive); in the assay on SNB-75 it was 14.3 µM (inactive); in the assay on DU-145, 20 µM (inactive); in the assay on MDA-MB-231, 16.7 µM (inactive); in the assay with MDA-MB-435, 20.1 µM (inactive); in the assay with NCI-H522 it was 25 µM (inactive). Moreover, the GI50 was 17.6 µM (inactive) in the assay with HOP-62; 31 µM (inactive) with UACC-257; 30.8 µM (inactive) in the assay with SW-620; 19.2 µM (inactive) with M14; 32.5 µM (inactive) with A549; 25.1 µM (inactive) in the assay with LOX IMVI. For the same compound, the GI50 is 30.5 µM (inactive) in the assay on SF-295; 55.3 µM (inactive) in the assay on K562; 15.2 µM (inactive) in the assay with A498; 32.7 µM (inactive) in the assay on SK-MEL-5; 22.9 µM (inactive) in the assay on TK-10; 22.4 µM (inactive) in the assay on T47D.

Turning to `O=C1/C(=C\c2cccc(Oc3ccccc3)c2)S(=O)(=O)C(c2ccccc2)N1c1ccc(Cl)cc1` (configuration not stated), the GI50 in the assay on RPMI-8226 is 12.3 µM (inactive); in the assay on SNB-75 it was 30.4 µM (inactive); with DU-145, 19.1 µM (inactive); with MDA-MB-231, 14.8 µM (inactive); with MDA-MB-435 it was 7.94 µM (inactive); with NCI-H522, 15.7 µM (inactive). The GI50 in the assay with HOP-62 was 27.8 µM (inactive); in the assay on UACC-257, 24 µM (inactive); with SW-620 it was 16.7 µM (inactive); in the assay on M14, 14 µM (inactive); in the assay with A549, 42.9 µM (inactive); with LOX IMVI, 10.4 µM (inactive). In addition, the GI50 with SF-295 is 5.28 µM (inactive); in the assay with K562 it was 10.6 µM (inactive); in the assay with A498, 34.4 µM (inactive); in the assay with SK-MEL-5 it was 13.6 µM (inactive); in the assay with TK-10, 92.3 µM (inactive); in the assay on T47D it was 5.55 µM (inactive).

Turning to `CC(=O)OC(CCC1(C)OC1COc1ccc(CCNC(=O)C=C(C)C)cc1)C(C)(C)OC(C)=O` (configuration not stated), the GI50 was 13.1 µM (inactive) in the assay on RPMI-8226; 44.4 µM (inactive) with SNB-75; > 100 µM (inactive) with DU-145; > 100 µM (inactive) in the assay on MDA-MB-231; 16.2 µM (inactive) in the assay with MDA-MB-435; 19.5 µM (inactive) in the assay with NCI-H522. The GI50 in the assay with HOP-62 was 20 µM (inactive); in the assay on UACC-257, 0.449 µM (active); in the assay on SF-268, > 61.2 µM (inactive); in the assay with SW-620, > 100 µM (inactive); with M14, 16.3 µM (inactive); in the assay with A549 it was 29.3 µM (inactive). The GI50 in the assay with LOX IMVI was 5.85 µM (inactive); in the assay with SF-295, 0.743 µM (active); in the assay on A498, > 100 µM (inactive); in the assay on SK-MEL-5, 0.502 µM (active); in the assay on TK-10, > 100 µM (inactive); with T47D, 16.6 µM (inactive).

`CC1=C(C(=O)N[C@@H](Cc2ccccc2)C(=O)O)N2C(=O)[C@@H](NC(=O)[C@@H](N)CC(C)C)[C@H]2SC1`: the GI50 in the assay on RPMI-8226, with SNB-75, with DU-145, in the assay on MDA-MB-231, in the assay with MDA-MB-435 and in the assay with NCI-H522 was > 100 µM (inactive) in each case. In addition, the GI50 in the assay on UACC-257, in the assay with SF-268, with SW-620, in the assay on M14, in the assay on A549 and in the assay on LOX IMVI was > 100 µM (inactive) each time. Moreover, the GI50 in the assay with SF-295, with K562, in the assay with A498, with SK-MEL-5, with TK-10 and in the assay with T47D was > 100 µM (inactive) in each case.

As for `CC12CCC(Br)C(C)(C)C1CC=C1C(=O)OCC1O2` (configuration not stated), the GI50 in the assay on RPMI-8226 was 2.73 µM (inactive); in the assay with SNB-75, 15.5 µM (inactive); with DU-145, 12 µM (inactive); in the assay on MDA-MB-231 it was 14.4 µM (inactive); with MDA-MB-435 it was 12 µM (inactive); in the assay on NCI-H522 it was 3.52 µM (inactive). In addition, the GI50 in the assay on UACC-257 was 12.4 µM (inactive); in the assay on SF-268 it was 14.1 µM (inactive); with SW-620, 16.7 µM (inactive); in the assay on M14, 20.5 µM (inactive); in the assay with A549, 23.6 µM (inactive); in the assay on LOX IMVI, 9.57 µM (inactive). For the same compound, the GI50 with SF-295 is 15.8 µM (inactive); in the assay on K562, 12.7 µM (inactive); with A498 it was 12 µM (inactive); with SK-MEL-5, 15.1 µM (inactive); in the assay on TK-10, 14 µM (inactive); in the assay with T47D it was 15.4 µM (inactive).

Take `Cc1ccc(C)c(C(=N)c2ccccc2Cc2ccccc2)c1`: the GI50 in the assay with RPMI-8226 is 12.3 µM (inactive); in the assay on DU-145, 22.9 µM (inactive); in the assay on MDA-MB-231 it was 22.8 µM (inactive); with MDA-MB-435 it was 17.9 µM (inactive); with NCI-H522, 13.2 µM (inactive); in the assay on HOP-62, 24.3 µM (inactive). Moreover, the GI50 in the assay with UACC-257 is 22.9 µM (inactive); in the assay with SF-268, 18.6 µM (inactive); in the assay with SW-620 it was 31.2 µM (inactive); with M14, 24.2 µM (inactive); with A549, 24.2 µM (inactive); with LOX IMVI it was 17.3 µM (inactive). The GI50 is 20 µM (inactive) with SF-295; 17.9 µM (inactive) with K562; 21.7 µM (inactive) in the assay with A498; 15.5 µM (inactive) in the assay with SK-MEL-5; 47.9 µM (inactive) in the assay on TK-10; 21 µM (inactive) in the assay with T47D.
